The results in this text go back to publication PMC10938783, “A novel pan-PI3K inhibitor KTC1101 synergizes with anti-PD-1 therapy by targeting tumor suppression and immune activation” (Molecular Cancer, 2024).

SMILES strings stand for the structures.

The data set can be described thus: Plasma metabolic stability assay. The format is in vitro ADME. To be noted: mouse plasma, 37°C, 120 min incubation. The method, then: 495 µL of plasma was placed in a 96-well plate and pre-incubated at 37°C for 5 min.

By half-life is commonly meant the time needed for the level to fall by half in the phase considered. A high value points to slow loss. Regarding `CCN(CC)CCOC(=O)c1ccc(N)cc1` [Procaine, reference compound], the half-life at 1 µM stood at 37.8 min.
